# Counter-ions that a name gives are not always drawn. Like-named read-outs stand apart in the source and are kept apart here.
# Legend:
# [1] = system: patients undergoing abdominal surgery; details: both groups; cited from earlier work
# [2] = clinical; details: human, in vivo
# Source text: The secondary objectives of the study are to assess the safety and tolerability of the study medication.
# The study was an open-label, single-period, randomized, parallel treatment design. The subjects underwent screening within 4 weeks of dosing. A total of 32 subjects were selected for participation. All subjects entered the clinical research unit on Day −1 prior to dosing. A blood sample for pharmacogenomic analysis was obtained at Day 1. This sample was to be used to determine the CYP2D6 phenotype if significant variability among subjects is observed in the pharmacokinetic values. Subjects received study drug every 6 hours beginning on the morning of Day 1 and ending on the morning of Day 3. The first dose on Day 1 and the last dose on Day 3 were administered after a minimum 10 hour fast.
# No food was administered until 4 hours after dosing on Day 3. Standardized meals were provided. Subjects remained confined to the clinical research unit until after completion of the 24 hour post-dose blood sampling and safety assessments (Day 4). […] Study drug tolerability was evaluated by Investigator assessment and evaluation of adverse event frequency and severity, including irritation at the injection site. Subjects who were taking SSRIs, tricyclic antidepressants, antipsychotic agents and MAO inhibitors were excluded from the study.
# The treatments are defined in Table 3 below. Each subject received only one of the designated treatments.
# The subjects were randomized to receive one of the 4 treatment regimens as outlined above. Subjects were administered Treatments A or C by intravenous administration or Ultram® (Treatment B or D) orally beginning in the morning of Day 1 at approximately 6:00 AM to 8:00 AM. All subjects fasted for at least 10 hours prior to the first dose of study drug. […] Water was allowed ad libitum; however, water was restricted from 1 hour prior to dosing to 1 hour after dosing on Day 3. Following the last dose in the morning of Day 3, no food was allowed until after the 4 hour blood sample had been obtained.
# FIG. 1 is a graphical representation of the plasma concentration curve for Treatments A-D after the administration of dose #9.
# [3] = system: postoperative patients; details: cited from earlier work
# [4] = system: Beagle dogs; details: in vivo
# [5] = in vivo; details: beagle, dog; for AUC(0-t) / Cmax: 26 mg/kg/day
compound,measurement,setting,value
"COc1cccc([C@]2(O)CCCC[C@H]2CN(C)C)c1 (racemic) [Tramadol, (±)cis-2-[(dimethylamino)methyl]-1-(3-methoxyphenyl) cyclohexanol hydrochloride]",patients reporting adverse events,[1],25%
same,"Bioavailability, AUC6",[2]; 50 mg,85.2%
same,"Bioavailability, AUCt",[2]; 50 mg,102.0%
same,"Bioavailability, AUC∞",[2]; 50 mg,103.1%
same,"Bioavailability, Cmax",[2]; 50 mg,64.3%
same,"Bioavailability, T1/2",[2]; 50 mg,109.6%
same,bioavailability,[2]; 50 mg,91.2%
same,"Bioavailability, AUC6",[2]; 100 mg,70.3%
same,"Bioavailability, AUCt",[2]; 100 mg,74.8%
same,"Bioavailability, AUC∞",[2]; 100 mg,74.6%
same,"Bioavailability, Cmax",[2]; 100 mg,54.9%
same,"Bioavailability, T1/2",[2]; 100 mg,88.0%
same,bioavailability,[2]; 100 mg,114%
same,dose proportionality,[2]; iv,substantially dose proportional
same,AUC,"[2]; iv, 50 mg",1960 ± 450 ng·h/mL
same,AUC(0-inf),"[2]; iv, 50 mg",4040 ± 1060 ng·h/mL
same,AUC(0-t),"[2]; iv, 50 mg",4010 ± 1040 ng·h/mL
same,half-life,"[2]; iv, 50 mg",6.61 ± 0.4 h
same,Cmax,"[2]; iv, 50 mg",~541 ng/mL
same,Tmax,"[2]; iv, 50 mg",~0.375 h
same,AUC,"[2]; iv, 100 mg",4730 ± 1240 ng·h/mL
same,AUC(0-inf),"[2]; iv, 100 mg",11400 ± 4540 ng·h/mL
same,AUC(0-t),"[2]; iv, 100 mg",11200 ± 4270 ng·h/mL
same,half-life,"[2]; iv, 100 mg",7.89 ± 1.54 h
same,Cmax,"[2]; iv, 100 mg",~1250 ng/mL
same,Tmax,"[2]; iv, 100 mg",~0.406 h
same,"Dose Proportionality Ratio, T1/2",[2]; po,0.945
same,AUC,"[2]; po, 50 mg",1730 ± 625 ng·h/mL
same,AUC(0-inf),"[2]; po, 50 mg",4450 ± 2110 ng·h/mL
same,AUC(0-t),"[2]; po, 50 mg",4360 ± 2030 ng·h/mL
same,half-life,"[2]; po, 50 mg",7.39 ± 1.72 h
same,Cmax,"[2]; po, 50 mg",355 ± 121 ng/mL
same,Tmax,"[2]; po, 50 mg",1.88 ± 0.78 h
same,AUC,"[2]; po, 100 mg",3360 ± 1010 ng·h/mL
same,AUC(0-inf),"[2]; po, 100 mg",8850 ± 4570 ng·h/mL
same,AUC(0-t),"[2]; po, 100 mg",8660 ± 4260 ng·h/mL
same,half-life,"[2]; po, 100 mg",7.05 ± 1.97 h
same,Cmax,"[2]; po, 100 mg",703 ± 210 ng/mL
same,Tmax,"[2]; po, 100 mg",2.32 ± 1.35 h
same,serious adverse effects,[3]; loading doses up to 150 mg IV (Silvasti 2000),not associated with any serious adverse effects
same,serious adverse effects,"[3]; mean cumulative doses 449 to 868.3 mg over 24, 36 and 48 h",no serious adverse effects were observed
same,adverse observations,[4]; dog,convulsions for two Beagle dogs
same,"toxicity in humans, conclusion from dog data",[4],not toxic
same,NOAEL,"[5]; both, 6.5 mg/kg",26 mg/kg/day
same,AUC(0-t),[5]; female,1520 ng·h/mL
same,Cmax,[5]; female,1530 ng/mL
same,AUC(0-t),[5]; male,1210 ng·h/mL
same,Cmax,[5]; male,1280 ng/mL
